Activity calls are given as the source filed them.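 Rule for the calls: active = a fitted half-maximal concentration EC50 for the rise in nuclear signal no higher than ten times the top dose tested; inconclusive = flat fit with activity between 30% and 70%, or unusable fit; inactive = EC50 beyond ten times the top dose.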
Molecular target: Hypoxia-inducible factor 1-alpha (Homo sapiens) (UniProt Q16665)
Assay: activators of HIF1alpha nuclear accumulation, confirmation, imaging, fluorescence, U2OS GFP-HIF1alpha (AID 434951)
Details: U2OS GFP-HIF1alpha nuclear intensity, high-content imaging

Hypoxia-inducible factor 1-alpha (Homo sapiens), sequence (Q16665 whole entry, looked up): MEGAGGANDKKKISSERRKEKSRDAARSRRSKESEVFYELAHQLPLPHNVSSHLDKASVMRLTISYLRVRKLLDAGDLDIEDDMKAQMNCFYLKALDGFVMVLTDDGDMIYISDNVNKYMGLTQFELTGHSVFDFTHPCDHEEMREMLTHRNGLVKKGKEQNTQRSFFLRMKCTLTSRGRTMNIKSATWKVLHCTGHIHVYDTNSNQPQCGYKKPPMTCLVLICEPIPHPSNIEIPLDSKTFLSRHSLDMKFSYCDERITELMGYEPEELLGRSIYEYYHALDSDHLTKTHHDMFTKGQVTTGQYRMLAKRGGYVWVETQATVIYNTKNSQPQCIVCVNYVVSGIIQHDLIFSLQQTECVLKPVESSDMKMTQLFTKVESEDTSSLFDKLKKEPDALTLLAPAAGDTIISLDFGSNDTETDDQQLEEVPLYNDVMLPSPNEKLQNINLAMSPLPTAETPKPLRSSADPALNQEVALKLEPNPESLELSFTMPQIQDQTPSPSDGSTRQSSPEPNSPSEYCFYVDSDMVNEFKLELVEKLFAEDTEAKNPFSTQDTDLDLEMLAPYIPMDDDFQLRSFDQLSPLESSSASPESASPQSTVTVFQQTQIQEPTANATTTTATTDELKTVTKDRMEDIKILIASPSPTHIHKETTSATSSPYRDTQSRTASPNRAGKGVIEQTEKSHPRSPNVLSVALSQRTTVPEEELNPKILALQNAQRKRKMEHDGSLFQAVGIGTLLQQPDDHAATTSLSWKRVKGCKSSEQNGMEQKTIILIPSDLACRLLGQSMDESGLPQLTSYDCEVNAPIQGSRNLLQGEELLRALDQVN

In the case of `Cc1ccccc1NC(=O)CN(C)S(=O)(=O)c1ccc(-c2ccc(=O)[nH]n2)s1`, the EC50 is reported as > 35 µM (inactive).
`CCCn1c(=NC(=O)c2c(-c3c(F)cccc3Cl)noc2C)c(C(=O)OCC)cc2c(=O)n3ccccc3nc21` gave an EC50 of 22.2 µM.
In the case of `CC(C)C(=O)N1CCN(c2ccc(NC(=O)COc3ccccc3[N+](=O)[O-])cc2)CC1`, the EC50 is reported as > 35 µM (inactive).
`S=C(N/N=C/c1cccc2ccccc12)Nc1cccc(Cl)c1` gave an EC50 of 31.9 µM.
For `C=CCOc1nc(-c2ccccc2Cl)nc2ccccc12`, the EC50 was > 35 µM (inactive).
`O=C(CN1CCCc2ccccc21)N/N=C/c1c(O)ccc2ccccc12` showed an EC50 of 36.5 µM.
`COc1ccc(C(=O)/C=C/C(=O)N(CC(=O)NC2CCCCC2)CC2CCCO2)c(O)c1` (centres undefined) was tested, and the EC50 was > 35 µM (inactive).
With `COc1ccc2oc(C(=O)OCC(=O)Nc3ccccc3OC)c(C)c2c1` the EC50 was > 35 µM (inactive).
With `CCCc1nc2ccccc2c(=O)n1/N=C/c1ccccc1O` the EC50 was > 35 µM (inactive).
With `Cc1cc(N/N=C/c2ccc(O)cc2O)nc(-c2ccccc2O)n1` the EC50 was 4.53 µM.
`O=C(N/N=C/c1ccc(O)c(O)c1O)/C(=C/c1ccc([N+](=O)[O-])cc1)NC(=O)c1ccccc1` was tested, and the EC50 was > 35 µM (inactive).
For `CC(=O)Cn1c(=O)c2c(nc3n2CCCN3Cc2ccccc2)n(C)c1=O`, the EC50 was > 35 µM (inactive).
For `CCCCOC(=O)c1ccc(NC(=S)NC(=O)c2c(Br)c(C)nn2C)cc1`, the EC50 was > 35 µM (inactive).
For `Cc1nc(NCCc2ccccc2)c(C#N)c(C)c1[N+](=O)[O-]`, the EC50 was > 35 µM (inactive).
`CC(=O)Nc1ccc(NC(=O)CCC(=O)OCC(=O)c2ccc(F)cc2)cc1` was tested, and the EC50 was > 35 µM (inactive).
In the case of `Cc1ccc(/C(=N/Nc2ncnc3ccccc23)C(=O)O)cc1`, the EC50 is reported as > 35 µM (inactive).
`CCOC(=O)C(=CNc1ccc(NC2=NCC(C)S2)cc1)C(=O)OCC` (centres undefined) was tested, and the EC50 was 8.3 µM.
With `O=C(Cn1nc(-c2ccccc2Cl)ccc1=O)Nc1ccccc1-c1ccccc1` the EC50 was > 35 µM (inactive).
`C/C(=N\OCc1nc2ccccc2c(=O)n1/N=C/c1cc(C)cc([N+](=O)[O-])c1O)c1ccccc1` was tested, and the EC50 was > 35 µM (inactive).
For `Cc1nc2cc(-c3ccccc3)sc2c(=O)n1N`, the EC50 was > 35 µM (inactive).
In the case of `CCOc1ccccc1N(CC(=O)N/N=C/c1cc(Br)ccc1OC)S(C)(=O)=O`, the EC50 is reported as > 35 µM (inactive).
With `COc1ccc(C(=O)CCNc2ccc(F)cc2)cc1` the EC50 was > 35 µM (inactive).
`O=C(N/N=C/c1cc([N+](=O)[O-])ccc1O)c1cccc2cc[nH]c12` showed an EC50 of 20.8 µM.
In the case of `O=C(NCCCN1CCOCC1)c1cc(-c2cccs2)on1`, the EC50 is reported as 12.3 µM.
`CC(Oc1ccc2c3c(c(=O)oc2c1)CCCC3)C(=O)NCC(O)c1ccccc1` (centres undefined) was tested, and the EC50 was > 35 µM (inactive).
`C=CCn1c(N2CCCCCC2)nc2c1c(=O)[nH]c(=O)n2C` was tested, and the EC50 was > 35 µM (inactive).
For `CC1(C)CC(=O)C(C=NCCN2CCN(C(=S)Nc3cccc(Cl)c3)CC2)=C(O)C1`, the EC50 was > 35 µM (inactive).
With `COc1ccc(OC)c(NC2=NCCCS2)c1` the EC50 was > 35 µM (inactive).
`COc1cc(C(=O)N2CCN(C(=O)Cc3ccccc3)CC2)cc(OC)c1OC` was tested, and the EC50 was > 35 µM (inactive).
For `C=CCNC(=S)N/N=C(\C)c1ccccn1`, the EC50 was 6.53 µM.
`O=C(NCCCN1CCOCC1)c1cc(-c2ccccc2)on1` was tested, and the EC50 was 9.39 µM.
In the case of `CCOc1ccc(CCNC(=O)COC(=O)Cn2nc(C)c([N+](=O)[O-])c2C)cc1OCC`, the EC50 is reported as > 35 µM (inactive).
`O=C(N/N=C(\Cc1ncc[nH]1)c1ccccc1)c1ccccc1` was tested, and the EC50 was > 35 µM (inactive).
Compound `Cc1cc(S(=O)(=O)ON2C(=O)c3ccccc3C2=O)ccc1F` has an EC50 of 6.21 µM.
Work on `c1ccc(CSc2ccc(-c3ccccn3)nn2)cc1` yielded an EC50 of 5.92 µM.
For `CN(C)c1ccc(CNC(=O)CCS(=O)(=O)c2ccc3c(c2)oc(=O)n3C)cc1`, the EC50 was > 35 µM (inactive).
For `COc1ccc(CC(NC(C)=O)C(=O)NC2CCN(C(=O)Nc3ccc(Cl)cc3)CC2)cc1OC` (centres undefined), the EC50 was > 35 µM (inactive).
For `CCCn1c(SCC(=O)Nc2ccccc2CC)nnc1C(C)C`, the EC50 was > 35 µM (inactive).
With `CC1SC(=NC(=O)c2ccncc2)NC1=O` (centres undefined) the EC50 was > 35 µM (inactive).
In the case of `COc1ccc(N2CCN(C(=O)CN(C)S(=O)(=O)c3cc(C)ccc3OC)CC2)cc1`, the EC50 is reported as > 35 µM (inactive).
`Cc1cc(OC(C)C(=O)NNC(=O)Nc2ccc(F)cc2F)cc(C)c1Cl` (centres undefined) was tested, and the EC50 was > 35 µM (inactive).
In the case of `COc1ccc(O)c(/C=N/NC(=S)Nc2cccc(S(=O)(=O)N(C)C)c2)c1`, the EC50 is reported as > 35 µM (inactive).
With `CC(C)COc1ccc(C(=O)Nc2ccc([N+](=O)[O-])cc2)cc1` the EC50 was > 35 µM (inactive).
`CC1(C)CC(NC(=O)CCC2CCCC2)CC(C)(C)N1` was tested, and the EC50 was > 35 µM (inactive).
